These results are taken from PMC7247329, “Kaempferol and Its Glycoside, Kaempferol 7-O-rhamnoside, Inhibit PD-1/PD-L1 Interaction In Vitro” (International Journal of Molecular Sciences, 2020).

Where “and” joins values, the source holds several entries; their conditions need not be identical. Identical values can stand only once.

For data set [1], the system named is PD-1/PD-L1 interaction in co-cultured PD-1 Jurkat T cells and PD-L1/aAPC CHO-K1 cells. Briefly: Cell-based PD-1/PD-L1 blockade bioassay (NFAT-luciferase reporter, co-culture). Details: species or system human. To be noted: co-culture 24 h; for EC50: Homo sapiens. The text has this:
When co-cultured with PD-1 Jurkat T cells and PD-L1/aAPC CHO-K1 cells, TCR activation is restrained by PD-1/PD-L1 ligation and the NFAT-luciferase reporter activity. When PD-1/PD-L1 interaction is disrupted, TCR activation induces luminescence via activation of the NFAT pathway in co-culture systems. Therefore, the effects of KO and its glycosides on PD-1/PD-L1 interaction in the cell model system were examined by measuring NFAT-luciferase reporter activity after co-culture with PD-1/NFAT Reporter-Jurkat cells and PD-L1/aAPC CHO-K1 cells. […] The results described above indicate that KO and its glycosides are involved with the PD-1/PD-L1 blockade, as confirmed by the biochemical assay.
A PD-1/PD-L1 Blockade Bioassay kit was used according to the supplier’s instructions (Promega, Fitchburg, WI, USA) with a slight modification. Briefly, the PD-L1 aAPC/CHO-K1 cells were seeded in 96-well plates at a density of 5 × 10^4/well in the complete culture medium. A few hours later, the medium was removed, and 1 × 10^5 PD-1 Jurkat cells were added to each well with test inhibitors. The cells were cultured for 24 h at 37 °C and then lysed using the Bio-Glo™ Luciferase Assay System (Promega, Madison, WI, USA). After incubation for 15 min, luminescence was quantified using a GloMax® Explorer Multimode Microplate Reader (Promega). Data are presented as fold to untreated control.
On the technique in general: A reporter such as luciferase makes a cellular process visible.

For data set [2], the system named is PD-L1/aAPC CHO-K1 cells. Briefly: Cell Counting Kit-8 (CCK) cell viability assay. The conditions noted are these: 24 h. The format is cell-based.
Data set [3] deals with PD-1 Jurkat cells. Put plainly: Cell Counting Kit-8 (CCK) cell viability assay. The format is cell-based, human. To be noted: 24 h. In general terms: Formazan colour is commonly taken as a measure of viable cells.
For data set [4], the system named is hPD-L1. Also noted: method as in PMID 31455818, PMID 31374878. The conditions noted are these: biochemical results; cited from earlier work.
For data set [5] the following is noted: reported; no reference given; cited from earlier work.
Data set [6] deals with T1, PD-1/PD-L1 protein–protein interaction (Homo sapiens, UniProt Q9NZQ7).
T1 construct: purchased BPS Bioscience #71104 (hPD-L1); #71109 (biotinylated hPD-1); kit #72005
Briefly: PD-1/PD-L1 competitive ELISA. The format is binding. In general terms: An ELISA detects its analyte on a solid surface through an enzyme-linked reagent.
Experimental: To elucidate the effect of test inhibitors on PD-1/PD-L1 protein–protein interaction, PD-1/PD-L1 Competitive ELISA Screening Kits (BPS Bioscience Inc., San Diego, CA, USA) were used according to the supplier’s instructions [27]. Briefly, recombinant hPD-L1 (BPS Bioscience, #71104) was coated overnight at 1 μg/mL in phosphate-buffered saline (PBS) in 96-well plates (Corning Inc., New York, NY, USA). Plates were washed with PBS containing 0.1% Tween (PBS-T), blocked for 1 h at room temperature with PBS containing 2% (w/v) BSA, and then washed again. Fifty microliters of 0.5 μg/mL biotinylated hPD-1 (BPS Bioscience, #71109) was added to the wells, and the plates were incubated for 2 h at room temperature. After three washes in PBS-T, 50 μL of 0.2 μg/mL HRP-conjugated streptavidin was added to each well, and the plates were incubated for 1h. After incubation, plates were washed three times in 0.1% PBS-T, and relative chemiluminescence was measured on a SpectraMax L Luminometer from Molecular Devices (San Jose, CA, USA).

Data set [7] deals with PD-1 level in co-cultured PD-1 Jurkat cells and PD-L1 CHO-K1 cells. Briefly: Western blot of PD-1 expression in co-cultured cells. To be noted: 24 h. The format is cell-based, human.
For data set [8], the target named is T2, biotinylated human PD-L1 (Homo sapiens, UniProt Q9NZQ7).
T2 construct: purchased Sino Biological
Put plainly: Biolayer interferometry (BLItz) kinetic analysis. The format is binding. On the procedure:
(§1) To measure the binding affinities and kinetic constants of test inhibitors, BLI analysis was conducted according to a previous report, with slight modifications. Briefly, BLI on a BLItz system is a label-free analytic technology for biomolecular interactions by measuring interference patterns of light reflected from two surfaces. After pre-equilibration of the SA BLI sensor (Pall FortéBio Corp., Menlo Park, CA, USA) in PBS buffer for 10 min, biotinylated human PD-1 (BioVision, Milpitas, CA, USA) and PD-L1 (Sino biological, Beijing, China) were fully loaded onto the sensors by immersion in 4 μL of PD-1 and PD-L1 solution and then dissolved in PBS buffer to 50 μg/mL. Test inhibitors for the kinetic analysis were prepared by 100-fold dilution of stock solution and dissolved in 100% DMSO (0, 0.25, 0.5, and 0.75 mM) in PBS buffer. Binding kinetics were measured as follows: step 1, initial baseline in PBS buffer containing 1% DMSO for 15 s; step 2, association in 4 μL of test inhibitors solution for 20 s; and step 3, dissociation in PBS buffer containing 1% DMSO for 20 s. The kinetic constants were calculated using the BLItz Pro software by fitting the association and dissociation data to a 1:1 model. The equilibrium dissociation constant, KD, was calculated as the dissociation constant (kd)/association constant (ka).

In data set [9] the target is T3, biotinylated human PD-1 (Homo sapiens, UniProt Q15116).
T3 construct: purchased BioVision
Briefly: Biolayer interferometry (BLItz) kinetic analysis. The format is binding. On the procedure:
as §1

In data set [10] the target is recombinant PD-1 (hPD-1) (Homo sapiens, UniProt Q15116). Briefly: Surface plasmon resonance (Biacore T200). The format is binding. The conditions noted are these: SPR.
recombinant PD-1 (hPD-1), sequence (Q15116 25-170 limits assumed): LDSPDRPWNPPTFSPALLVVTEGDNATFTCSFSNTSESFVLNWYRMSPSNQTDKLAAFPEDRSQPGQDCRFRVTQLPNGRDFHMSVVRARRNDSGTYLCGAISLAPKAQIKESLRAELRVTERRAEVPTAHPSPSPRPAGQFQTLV

T2 sequence (Q9NZQ7 19-290): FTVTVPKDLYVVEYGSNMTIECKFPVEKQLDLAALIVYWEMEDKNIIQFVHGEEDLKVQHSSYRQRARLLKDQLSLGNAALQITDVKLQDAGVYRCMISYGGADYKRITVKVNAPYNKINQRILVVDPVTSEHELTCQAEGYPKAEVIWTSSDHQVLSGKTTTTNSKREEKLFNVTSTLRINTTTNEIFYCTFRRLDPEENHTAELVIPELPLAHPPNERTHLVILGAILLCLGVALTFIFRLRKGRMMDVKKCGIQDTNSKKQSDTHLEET
T3 sequence (Q15116 25-288): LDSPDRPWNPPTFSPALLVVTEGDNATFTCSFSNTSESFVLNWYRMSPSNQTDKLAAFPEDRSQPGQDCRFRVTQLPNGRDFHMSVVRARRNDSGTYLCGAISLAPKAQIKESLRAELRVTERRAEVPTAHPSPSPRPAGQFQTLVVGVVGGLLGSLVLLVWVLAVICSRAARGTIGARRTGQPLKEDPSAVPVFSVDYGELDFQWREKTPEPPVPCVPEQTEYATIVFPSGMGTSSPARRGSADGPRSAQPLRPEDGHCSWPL
T1 sequence (Q9NZQ7 19-239 limits assumed): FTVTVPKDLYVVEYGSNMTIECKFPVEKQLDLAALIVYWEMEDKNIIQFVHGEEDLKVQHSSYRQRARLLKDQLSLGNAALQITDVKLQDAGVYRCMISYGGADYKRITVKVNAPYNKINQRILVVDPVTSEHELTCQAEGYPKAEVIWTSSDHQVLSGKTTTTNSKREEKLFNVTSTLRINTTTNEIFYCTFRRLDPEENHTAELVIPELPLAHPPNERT

For `C[C@@H]1O[C@@H](Oc2cc(O)c3c(=O)c(O[C@@H]4O[C@@H](C)[C@H](O)[C@@H](O)[C@H]4O)c(-c4ccc(O)cc4)oc3c2)[C@H](O)[C@H](O)[C@H]1O` [KI, kaempferol-3,7-dirhamnoside], the “Effect on PD-1/PD-L1 interaction in cell model” value in data set [1] (indicated concentration) is “no effect at the indicated concentration”. The “Cytotoxic concentration (not cytotoxic up to)” value in data set [2] and in data set [3] was greater than 100 µM each time.
Take `C[C@@H](O)[C@H](NC(=O)N[C@@H](CC(N)=O)c1nc([C@@H](N)CO)no1)C(=O)O` [CA-170]: in [4], the “Direct targeting of hPD-L1” value is recorded as “did not target hPD-L1 directly”.
Usually EC50 stands for the concentration needed to bring the measured effect to its halfway point. Higher therefore signals lower potency in that assay. In [1], `O=c1c(O)c(-c2ccc(O)cc2)oc2cc(O)cc(O)c12` [KO, kaempferol] returned an EC50 of 16.5 µM. Further, the Solubility in water in [5] was 440 mg/L and 1.537 mM. In addition, the IC50 in [6] (PD-L1-coated plate, biotinylated PD-1, read-out: IC50, PD-1/PD-L1 blocking effect) turned out to be 7.8 µM. In addition, the “Cytotoxic concentration (not cytotoxic up to)” value in data set [2] and in data set [3] was greater than 100 µM throughout. Further, in [7], the “Effect on PD-1 level” value is “not upregulation of PD-1 level”.
Broadly, the Kd is a measure of binding affinity in units of concentration. On to `C[C@@H]1O[C@@H](Oc2cc(O)c3c(=O)c(O)c(-c4ccc(O)cc4)oc3c2)[C@H](O)[C@H](O)[C@H]1O` [KR, kaempferol 7-O-rhamnoside], for which a half-maximal response in data set [1] (EC50) required 15.4 µM. Also, in data set [5], the Solubility in water was 1.16 mg/mL and 2.68 mM. Moreover, the results for the kd in data set [8] (PD-L1) and in data set [9] (PD-1) were 0.00773 s⁻¹ and 0.00979 s⁻¹, respectively. Also, the kon in [8] (PD-L1, read-out: ka) was found to be 392 M⁻¹ s⁻¹; in data set [9] (PD-1, read-out: ka), 315 M⁻¹ s⁻¹. The Kd is 19.7 µM in [8] (PD-L1 immobilized on SA sensor, PBS pH 7.3 with 1% DMSO, 1:1 model); 31.1 µM in [9] (PD-1 immobilized on SA sensor, PBS pH 7.3 with 1% DMSO, 1:1 model); 156 µM in data set [10] (Biacore T200, recombinant PD-1). In addition, the “Inhibitory effect on PD-1/PD-L1 binding” value in data set [6] is recorded as “revealed inhibitory effects on PD-1/PD-L1 binding but did not show dose-dependent activities”. The Rmax in data set [10] (Biacore software) is listed as 24.92. In addition, the “Cytotoxic concentration (not cytotoxic up to)” value in [2] and in data set [3] was greater than 100 µM throughout. For the same compound, the “Effect on PD-1 level” value in data set [7] was “not upregulation of PD-1 level”.
